Literature values in patent US12404360B2, “Method of preparing graft copolymer” (LG CHEM, LTD., priority 2019, dated 2025).

Columns and labels:
[1] = not given; remark: listed apart in the source

Row | Solubility in water at 20° C. [g/100 g] | 10-hour half-life decomposition temperature in water [1] [°C] | 10-hour half-life decomposition temperature in methanol ([1]; in methanol) [°C] | SMILES | 10-hour half-life decomposition temperature in toluene [1] [°C]
1 | 14 | 57 | – | CC(C)(/N=N/C(C)(C)C(=N)NCCC(=O)O)C(=N)NCCC(=O)O [VA-057] | –
2 | 0.5 | – | 61 | CC(C)(/N=N/C(C)(C)C1=NCCN1)C1=NCCN1 [VA-061] | –
3 | 2.4 | 86 | – | CC(C)(/N=N/C(C)(C)C(=O)NCCO)C(=O)NCCO [VA-086] | –
4 | 0.1 | 69 | – | CC(C#N)(CCC(=O)O)/N=N/C(C)(C#N)CCC(=O)O (stereo not drawn) [VA-501] | –

Second part, the molecule before the results:

Row | SMILES | Solubility in water at 20° C. [g/100 g] | 10-hour half-life decomposition temperature in water [1] [°C] | 10-hour half-life decomposition temperature in methanol ([1]; in methanol) [°C] | 10-hour half-life decomposition temperature in toluene [1] [°C]
5 | CC(C)(C#N)/N=N/C(C)(C)C#N [AIBN] | < 0.1 | – | – | 65
6 | CC(C)CC(C)(C#N)/N=N/C(C)(C#N)CC(C)C (stereo not drawn) [Example V-65] | < 0.1 | – | – | 51
7 | CC(C)(/N=N/C(C)(C)C1=NCCN1)C1=NCCN1 [VA-044] | 35.2 | 44 | – | –
8 | CC(C)(/N=N/C(C)(C)C(=N)N)C(=N)N [VA-050] | – | 56 | – | –
